# From patent US6479666B2, “Phenyl-keto-imidazolidine thioamide derivatives” (Hoffman-La Roche Inc., priority 2001, dated 2002)
# Counter-ions that a name gives are not always drawn.
# Key:
# [1] = biological target: T1, VLA-4 (α4β1 integrin) binding to immobilized VCAM-1 (Homo sapiens, UniProt P05556+P13612); experiment: VLA-4/VCAM-1 Screening Assay (solid-phase dual antibody ELISA); details: Ramos cell-derived VLA-4, recombinant human VCAM-1 coated plates
# T1 construct: followed by 10 μl of Ramos cell-derived VLA-4; endogenous in cells; host or cells: Ramos cells (VLA-4 prepared from them)
# Protocol: 1. VLA-4/VCAM-1 Screening Assay
# VLA-4 antagonist activity, defined as ability to compete for binding to immobilized VCAM-1, was quantitated using a solid-phase, dual antibody ELISA. VLA-4 (α4β1 integrin) bound to VCAM-1 is detected by a complex of anti-integrin β1 antibody: HRP-conjugated anti-mouse IgG: chromogenic substrate (K-Blue). Initially, this entailed coating 96 well plates (Nunc Maxisorp) with recombinant human VCAM-1 (0.4 μg in 100 μl PBS), sealing each plate and then allowing the plates to stand at 4° C. for ^˜18 hr. […] On the day of assay, all plates are washed twice with VCAM Assay Buffer (200 μl/well of 50 mM Tris-HCl, 100 mM NaCl, 1 mM MnCl2, 0.05% Tween 20; pH 7.4). Test compounds are dissolved in 100% DMSO and then diluted 1:20 in VCAM Assay Buffer supplemented with 1 mg/mL BSA (i.e., final DMSO=5%). A series of 1:4 dilutions are performed to achieve a concentration range of 0.005 nM−1.563 μM for each test compound. 100 μl per well of each dilution is added to the VCAM-coated plates, followed by 10 μl of Ramos cell-derived VLA-4. These plates are sequentially mixed on a platform shaker for 1 min, incubated for 2 hr at 37° C., and then washed four times with 200 μl/well VCAM Assay Buffer. 100 μl of mouse anti-human integrin β1 antibody is added to each well (0.6 μg/mL in VCAM Assay Buffer+1 mg/mL BSA) and allowed to incubate for 1 hr at 37° C. At the conclusion of this incubation period, all plates are washed four times with VCAM Assay Buffer (200 μl/well). A corresponding second antibody, HRP-conjugated goat anti-mouse IgG (100 μl per well @ 1:800 dilution in VCAM Assay Buffer+1 mg/mL BSA), is then added to each well, followed by a 1 hr incubation at room temperature and concluded by three washes (200 μl/well) with VCAM Assay Buffer. Color development is initiated by addition of 100 μl K-Blue per well (15 min incubation, room temp) and terminated by addition of 100 μl Red Stop Buffer per well. All plates are then read in a UV/V is spectrophotometer at 650 nM. Results are calculated as % inhibition of total binding (i.e., VLA-4+VCAM-1 in the absence of test compound).
# [2] = biological target: T2, Ramos cells bearing cell-surface VLA-4 (α4β1 integrin) binding to VCAM-1 (Homo sapiens, UniProt P05556+P13612); experiment: Ramos (VLA-4) / VCAM-1 Cell-Based Screening Assay (cell adhesion); details: Calcein-AM labelled Ramos cells, VCAM-1 coated plates
# T2 construct: Ramos cells bearing cell-surface VLA-4; endogenous in cells; host or cells: Ramos cells (VLA-4); VCAM-1 made in CHO cells
# Protocol: 2. Ramos (VLA-4) / VCAM-1 Cell-Based Screening Assay Protocol
# Soluble recombinant human VCAM-1 (mixture of 5- and 7-Ig domain) was purified from CHO cell culture media by immunoaffinity chromatography and maintained in a solution containing 0.1 M Tris-glycine (pH 7.5), 0.1 M NaCl, 5 mM EDTA, 1 mM PMSF, […] NaN3 and 10 μg/mL leupeptin. Calcein-AM was purchased from Molecular Probes Inc.
# VLA-4 (α4β1 integrin) antagonist activity, defined as ability to compete with cell-surface VLA-4 for binding to immobilized VCAM-1, was quantitated using a Ramos-VCAM-1 cell adhesion assay. Ramos cells bearing cell-surface VLA-4, were labeled with a fluorescent dye (Calcein-AM) and allowed to bind VCAM-1 in the presence or absence of test compounds. A reduction in fluorescence intensity associated with adherent cells (% inhibition) reflected competitive inhibition of VLA-4 mediated cell adhesion by the test compound. Initially, this entailed coating 96 well plates (Nunc Maxisorp) with recombinant human VCAM-1 (100 ng in 100 μl PBS), sealing each plate and allowing the plates to stand at 4° C. for ^˜18 hr. The VCAM-coated plates were subsequently washed twice with 0.05% Tween-20 in PBS, and then blocked for 1 hr (room temperature) with 200 μl of Blocking Buffer (1% BSA/0.02% thimerosal) to reduce non-specific binding. Following the incubation with Blocking Buffer, plates were inverted, blotted and the remaining buffer aspirated. Each plate was then washed with 300 μl PBS, inverted and the remaining PBS aspirated.
# Test compounds were dissolved in 100% DMSO and then diluted 1:25 in VCAM Cell Adhesion Assay Buffer (4 mM CaCl2, 4 mM MgCl2 in 50 mM TRIS-HCl, pH 7.5) (final DMSO=4%). A series of eight 1:4 dilutions were performed for each compound (general concentration range of 1 nM-12,500 nM). 100 μl/well of each dilution was added to the VCAM-coated plates, followed by 100 μl of Ramos cells (200,000 cells/well in 1% BSA/PBS). Plates containing test compounds and Ramos cells were allowed to incubate for 45 min at room temperature, after which 165 μl/well PBS was added. Plates were inverted to remove non-adherent cells, blotted and 300 μl/well PBS added. Plates were again inverted, blotted and the remaining buffer gently aspirated. 100 μl Lysis Buffer (0.1% SDS in 50 mM TRIS-HCl, pH 8.5) was added to each well and agitated for 2 min on a rotary shaking platform. The plates were then read for fluorescence intensity on a Cytofluor 2300 (Millipore) fluorescence measurement system (excitation=485 nm, emission=530 nm).
# [3] = test system: cynomolgus monkeys (Macaca fascicularis) challenged with Ascaris suum antigen; experiment: Acute airway inflammation in the atopic primate; type: in vivo; details: p.o., 2 hours prior to antigen challenge; lavage at 24 hour after A. suum antigen challenge
# Protocol: Example 4. Acute airway inflammation in the atopic primate.
# Airway inflammation in the monkey was determined using a modification of the protocol described by Turner et al. (Turner et al., 1994). Adult male cynomolgus monkeys (Macaca fascicularis, Hazelton Labs, Denver, Pa.) weighing between 3.6-5.8 kg were used in these studies.
# On the day of each experiment the animals were anesthetized with ketamine hydrochloride, 12 mg/kg, and xylazine, 0.5 mg/kg, intubated with a cuffed endotracheal tube (3 mm, Mallinckrodt Medical, St. Louis, Mo.), then seated in an upright position in a specially designed Plexiglass chair (Plas-Labs, Lansing, Mich.). The endotracheal tube was connected to a heated Fleisch pneumotachograph. Airflow was measured via a Validyn differential pressure transducer (DP 45-24) that was attached to the pneumotachograph. Transpulmonary pressure was measured via a second Validyne transducer (DP 45-24) connected between a sidearm of the tracheal cannula and a 18-gauge intrapleural needle inserted in the intercostal space located below the left nipple. […]
# Airway inflammation was induced by exposing the animal to an aerosol of A. Suum extract for 60 sec. […] Airway inflammation was assessed by inserting a pediatric bronchoscope into the airway lumen down to about the 4 or 5th generation bronchi and gently lavaging with 3 X 2 ml aliquots of sterile Hanks Balanced Salt Solution. […]
# T1 sequence (P13612 34-1032): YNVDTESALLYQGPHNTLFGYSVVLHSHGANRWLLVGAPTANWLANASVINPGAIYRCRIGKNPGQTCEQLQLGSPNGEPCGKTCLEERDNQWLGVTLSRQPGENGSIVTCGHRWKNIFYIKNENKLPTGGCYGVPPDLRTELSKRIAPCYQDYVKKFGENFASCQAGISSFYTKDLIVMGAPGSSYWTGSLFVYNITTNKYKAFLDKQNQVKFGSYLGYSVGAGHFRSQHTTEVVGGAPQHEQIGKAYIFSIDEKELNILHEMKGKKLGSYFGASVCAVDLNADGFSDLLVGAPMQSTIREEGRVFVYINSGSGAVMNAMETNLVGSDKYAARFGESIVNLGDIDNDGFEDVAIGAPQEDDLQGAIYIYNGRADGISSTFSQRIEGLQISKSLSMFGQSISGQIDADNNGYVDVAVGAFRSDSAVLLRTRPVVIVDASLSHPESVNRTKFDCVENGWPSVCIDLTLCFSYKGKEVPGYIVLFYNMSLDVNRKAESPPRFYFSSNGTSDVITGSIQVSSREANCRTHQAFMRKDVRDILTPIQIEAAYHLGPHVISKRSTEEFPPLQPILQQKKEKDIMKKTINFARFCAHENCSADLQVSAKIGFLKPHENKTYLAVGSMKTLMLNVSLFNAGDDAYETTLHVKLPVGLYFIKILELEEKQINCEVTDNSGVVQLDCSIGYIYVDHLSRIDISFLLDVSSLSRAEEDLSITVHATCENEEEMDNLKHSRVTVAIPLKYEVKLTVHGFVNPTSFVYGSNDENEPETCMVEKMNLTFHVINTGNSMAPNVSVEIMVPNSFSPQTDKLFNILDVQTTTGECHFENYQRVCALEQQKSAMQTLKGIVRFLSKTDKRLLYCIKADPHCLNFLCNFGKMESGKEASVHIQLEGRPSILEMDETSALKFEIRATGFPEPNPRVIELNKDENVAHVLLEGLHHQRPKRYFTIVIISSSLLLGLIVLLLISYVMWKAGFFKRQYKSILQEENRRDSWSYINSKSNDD
# T1 sequence (P05556 21-798): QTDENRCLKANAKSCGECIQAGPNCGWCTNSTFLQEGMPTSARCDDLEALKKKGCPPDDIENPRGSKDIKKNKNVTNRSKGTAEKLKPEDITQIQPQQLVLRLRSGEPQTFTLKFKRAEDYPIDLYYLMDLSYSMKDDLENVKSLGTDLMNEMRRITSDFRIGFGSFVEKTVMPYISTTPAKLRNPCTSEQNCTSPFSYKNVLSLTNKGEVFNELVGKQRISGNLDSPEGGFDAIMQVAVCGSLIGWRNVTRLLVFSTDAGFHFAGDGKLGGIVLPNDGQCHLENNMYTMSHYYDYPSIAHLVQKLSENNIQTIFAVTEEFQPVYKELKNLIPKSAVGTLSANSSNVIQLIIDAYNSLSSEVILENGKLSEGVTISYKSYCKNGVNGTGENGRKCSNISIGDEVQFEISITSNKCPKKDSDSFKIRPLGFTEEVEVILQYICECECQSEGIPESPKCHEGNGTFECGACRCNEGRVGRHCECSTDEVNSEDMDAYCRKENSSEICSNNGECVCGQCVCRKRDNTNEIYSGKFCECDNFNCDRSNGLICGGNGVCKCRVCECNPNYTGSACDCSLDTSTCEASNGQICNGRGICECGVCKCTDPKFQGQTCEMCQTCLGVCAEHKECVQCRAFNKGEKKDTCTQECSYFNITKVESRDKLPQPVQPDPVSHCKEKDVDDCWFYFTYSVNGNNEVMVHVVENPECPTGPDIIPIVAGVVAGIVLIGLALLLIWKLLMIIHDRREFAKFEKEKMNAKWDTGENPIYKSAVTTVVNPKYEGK
# T2 sequence (P13612 34-1032): as the sequence (P13612 34-1032) above
# T2 sequence (P05556 21-798): as the sequence (P05556 21-798) above
Compound,IC50 [1] [nM],IC50 [2] [µM],melting point [°C],number and percent of inflammatory cells present in the lavage fluid relative to vehicle treated control animals [3]
"Cc1cccc(Cl)c1C(=S)N[C@@H](Cc1ccc(NC(=O)c2c(Cl)cccc2Cl)cc1)C(=O)O [Example 18, 4-[[(2,6-dichlorophenyl)carbonyl]amino]-N-[(2-chloro-6-methylphenyl)thioxomethyl]-L-phenylalanine]",0.47,0.06,,
"O=C(Nc1ccc(C[C@H](NC(=S)c2ccccc2C(F)(F)F)C(=O)O)cc1)c1c(Cl)cccc1Cl [Example 39, 4-[[(2,6-dichlorophenyl)carbonyl]amino]-N-[[2-(trifluoromethyl)phenyl]thioxomethyl]-L-phenylalanine]",,0.784,,
"CCc1cccc(C)c1C(=S)N[C@@H](Cc1ccc(N2C(=O)[C@@H](Cc3cccnc3)N(C(C)=O)[C@@H]2c2ccccc2)cc1)C(=O)O [Example 29, 4-[(2S,4R)-3-acetyl-5-oxo-2-phenyl-4-[(pyridin-3-yl)methyl]imidazolidin-1-yl]-N-[(2-ethyl-6-methylphenyl)thioxomethyl]-L-phenylalanine]",,0.22,,
CNC(=O)NCCC1(C(=S)N[C@@H](Cc2ccc(NC(=O)c3c(Cl)cccc3Cl)cc2)C(=O)O)CCCC1 [Example 11],5.6,0.0425,,
"O=C(Nc1ccc(C[C@H](NC(=S)c2ccccc2F)C(=O)O)cc1)c1c(Cl)cccc1Cl [Example 34, 4-[[(2,6-dichlorophenyl)carbonyl]amino]-N-[(2-fluorophenyl)thioxomethyl]-L-phenylalanine]",,4.18,,
"COCCC1(C(=S)N[C@@H](Cc2ccc([N+](=O)[O-])cc2)C(=O)OC)CCCC1 [Example 1, N-[[1-(2-methoxyethyl)cyclopentyl]thioxomethyl]-4-nitro-L-phenylalanine methyl ester]",,,,significant decrease
"CCc1cccc(C)c1C(=S)N[C@@H](Cc1ccc(NC(=O)c2c(Cl)cccc2Cl)cc1)C(=O)O [Example 25, 4-[[(2,6-dichlorophenyl)carbonyl]amino]-N-[(2-ethyl-6-methylphenyl)thioxomethyl]-L-phenylalanine]",6,0.101,,

# Now from value to compound, other results behind:
IC50 [1] [nM],IC50 [2] [µM],melting point [°C],Compound,number and percent of inflammatory cells present in the lavage fluid relative to vehicle treated control animals [3]
,0.03,200 to 202,"CS(=O)(=O)CCCCC1(C(=S)N[C@@H](Cc2ccc(NC(=O)c3c(Cl)cccc3Cl)cc2)C(=O)O)CCCC1 [Example 50, 4-[[(2,6-dichlorophenyl)carbonyl]amino]-N-[[1-[4-(methylsulfonyl)butyl]cyclopentyl]thioxomethyl]-L-phenylalanine]",
4,0.0665,,"COCCC1(C(=S)N[C@@H](Cc2ccc(NC(=O)c3c(Cl)cccc3Cl)cc2)C(=O)O)CCCC1 [Example 3, 4-[[(2,6-dichlorophenyl)carbonyl]amino]-N-[[1-(2-methoxy-ethyl)cyclopentyl]thioxomethyl]-L-phenylalanine]",
,0.148,,"Cc1ccnc(C)c1C(=O)Nc1ccc(C[C@H](NC(=S)C2(CCCCS(C)(=O)=O)CCCC2)C(=O)O)cc1 [Example 53, 4-[[(2,4-dimethylpyridin-3-yl)carbonyl]amino]-N-[[1-[4-(methylsulfonyl)butyl]-cyclopentyllthioxomethyl]-L-phenylalaninetrifluoroacetic acid salt]",
,0.008,,"CS(=O)(=O)CCCCC1(C(=S)N[C@@H](Cc2ccc(NC(=O)c3c(Cl)cccc3Cl)cc2)C(=O)O)CCC1 [Example 62, 4-[[(2,6-dichlorophenyl)carbonyl]amino]-N-[[1-[4-(methylsulfonyl)-butyl]cyclobutyl]thioxomethyl]-L-phenylalanine]",
,0.341,,"CS(=O)(=O)CCCC1(C(=S)N[C@@H](Cc2ccc(NC(=O)c3c(Cl)cccc3Cl)cc2)C(=O)O)CCC1 [Example 78, 4-[[(2,6-dichlorophenyl)carbonyl]amino]-N-[[1-[3-(methylsulfonyl)propyl]cyclobutyl]thioxomethyl]-L-phenylalanine]",
,0.0055,,Cc1cc(C(F)(F)F)c(C(=O)Nc2ccc(C[C@H](NC(=S)C3(CCCCS(C)(=O)=O)CCC3)C(=O)O)cc2)c(C)n1 [Example 84],
1.5,0.033,,"CC(=O)NCCC1(C(=S)N[C@@H](Cc2ccc(NC(=O)c3c(Cl)cccc3Cl)cc2)C(=O)O)CCCC1 [Example 10, N-[[1-[2-(acetylamino)ethyl]cyclopentyl]thioxomethyl]-4-[[(2,6-dichlorophenyl)carbonyl]amino]-L-phenylalanine]",
,0.926,186 to 188,"CSCCCC1(C(=S)N[C@@H](Cc2ccc(NC(=O)c3c(Cl)cccc3Cl)cc2)C(=O)O)CCC1 [Example 71, 4-[[(2,6-dichlorophenyl)carbonyl]amino]-N-[[1-[3-(methylthio)propyl]cyclobutyl]-thioxomethyl]-L-phenylalanine]",
